Structures are written as SMILES.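 How tested: cells in 96-well plates exposed to compound for 48 hours at five concentrations. At the GI50, growth is halved.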 Activity calls are given as the source filed them. Rule as the data show it: active = GI50 up to about 1.1 µM and inactive = higher. Residues, ends and D or L forms follow the SMILES beside them. *: point of attachment. Fmoc = O=C(OCC1c2ccccc2-c2ccccc21)*; Boc = CC(C)(C)OC(=O)*

Some test systems named below: A498; ACHN; CAKI-1; HOP-62; HT-29; Hs-578T; MCF7; MOLT-4; Malme-3M; NCI-H522; OVCAR-3; OVCAR-4; OVCAR-5; SF-295; SF-539; SR; SW-620; U-251; HCC 2998; SK-OV-3.
Experiment in all cases: inhibition of tumour cell growth, NCI panel, 48 h

In the case of `Cc1cc(SCC(=O)c2ccccc2)nc2ccccc12`, the GI50 in the test on A498 was > 100 µM (inactive); in the test with ACHN, > 100 µM (inactive); in the test on CAKI-1, > 100 µM (inactive); in the test with HOP-62, 88.9 µM (inactive); in the test on HT-29, 40.1 µM (inactive); in the test with Hs-578T, < 0.01 µM (active). Moreover, the GI50 with MCF7 was > 100 µM (inactive); in the test on MOLT-4, > 100 µM (inactive); in the test on Malme-3M, > 100 µM (inactive); with NCI-H522, 53.7 µM (inactive); with OVCAR-3 it was 41.2 µM (inactive); in the test on OVCAR-4 it was > 100 µM (inactive). The GI50 with OVCAR-5 was 72.9 µM (inactive); with SF-295 it was > 100 µM (inactive); in the test with SF-539, > 100 µM (inactive); in the test with SR it was > 100 µM (inactive); with SW-620, > 100 µM (inactive); with U-251 it was > 100 µM (inactive).
For the compound `O=[N+]([O-])c1ccc2c(c1)=[N+]([O-])C1(CCCCC1)[N+]=2[O-]`, the GI50 was 19.6 µM (inactive) in the test with ACHN; 20.4 µM (inactive) with CAKI-1; 18.3 µM (inactive) in the test on HCC 2998; 17.1 µM (inactive) in the test with HOP-62; 19.5 µM (inactive) with HT-29; 21.5 µM (inactive) in the test on Hs-578T. In addition, the GI50 with MCF7 is 16.1 µM (inactive); in the test with MOLT-4, 6.15 µM (inactive); in the test with Malme-3M, 15.2 µM (inactive); with OVCAR-3, 15.6 µM (inactive); in the test on OVCAR-4, 11.6 µM (inactive); in the test with OVCAR-5, 20.5 µM (inactive). Also, the GI50 with SF-295 was 19.8 µM (inactive); in the test on SF-539 it was 18.5 µM (inactive); with SK-OV-3, 22.5 µM (inactive); in the test with SR, 6.43 µM (inactive); with SW-620, 15.9 µM (inactive); with U-251, 17.2 µM (inactive).
`CCOc1cc2c(c(OCC)c1O)CC[C@@H]1[C@@H]2CC[C@]2(C)[C@@H](O)CC[C@@H]12`: the GI50 was 5.21 µM (inactive) with A498; 1.11 µM (active) with ACHN; 0.746 µM (active) in the test on CAKI-1; 1.32 µM (inactive) with HOP-62; 8.38 µM (inactive) in the test with HT-29; 4.68 µM (inactive) with Hs-578T. The GI50 was 0.505 µM (active) with MCF7; 0.681 µM (active) in the test with MOLT-4; 2.29 µM (inactive) with Malme-3M; 0.61 µM (active) in the test with NCI-H522; 51.8 µM (inactive) in the test on OVCAR-4; 10.7 µM (inactive) in the test on OVCAR-5. In addition, the GI50 in the test on SF-295 was 0.693 µM (active); in the test with SF-539, 1.48 µM (inactive); in the test with SK-OV-3 it was 4.75 µM (inactive); with SR it was 0.331 µM (active); with SW-620 it was 1.22 µM (inactive).
Take `C/C(=N\Nc1ccc2ccccc2n1)c1ccccc1O`: the GI50 in the test with A498 is > 100 µM (inactive); in the test on ACHN it was > 100 µM (inactive); with CAKI-1 it was > 100 µM (inactive); with HOP-62, 14 µM (inactive); in the test with HT-29, 8.15 µM (inactive); in the test with Hs-578T, > 83.2 µM (inactive). The GI50 is 5.31 µM (inactive) in the test with MCF7; 4.69 µM (inactive) with MOLT-4; > 100 µM (inactive) with Malme-3M; > 100 µM (inactive) with NCI-H522; 2.13 µM (inactive) in the test with OVCAR-3; > 100 µM (inactive) in the test on OVCAR-4. Besides, the GI50 with OVCAR-5 was > 100 µM (inactive); with SF-295 it was 8.07 µM (inactive); with SF-539, > 68.9 µM (inactive); in the test on SK-OV-3, 29.8 µM (inactive); in the test with SR, 3.15 µM (inactive); in the test with SW-620, > 27.6 µM (inactive). For the same compound, the GI50 in the test with U-251 is 54.1 µM (inactive).
In the case of `CCN(CC(O)COc1ccc2c(c1)[n+]([O-])nc(N)[n+]2[O-])C(C)=O` (stereo unspecified), the GI50 in the test with A498 was 62.1 µM (inactive); in the test on ACHN it was > 100 µM (inactive); with CAKI-1, > 100 µM (inactive); with HOP-62 it was > 100 µM (inactive); with HT-29 it was > 100 µM (inactive); in the test on Hs-578T, 63 µM (inactive). For the same compound, the GI50 is 91 µM (inactive) in the test with MCF7; 39 µM (inactive) in the test with MOLT-4; 31.1 µM (inactive) in the test with NCI-H522; > 100 µM (inactive) in the test on OVCAR-3; 86.5 µM (inactive) in the test on OVCAR-4; > 100 µM (inactive) with OVCAR-5. Moreover, the GI50 in the test on SF-295, with SF-539, with SK-OV-3, with SR, in the test on SW-620 and in the test with U-251 was > 100 µM (inactive) each time.
On to `CC12CCCCC1=[N+]([O-])C(C)(C)N2O` (stereo unspecified), for which the GI50 in the test with ACHN, with CAKI-1, in the test on HCC 2998, with HOP-62, in the test with HT-29 and in the test on Hs-578T was > 100 µM (inactive) throughout. Besides, the GI50 in the test with MCF7, in the test on Malme-3M, with OVCAR-3, with OVCAR-4, with OVCAR-5 and in the test with SF-295 was > 100 µM (inactive) each time. The GI50 with SF-539, in the test with SK-OV-3, in the test with SR, with SW-620 and with U-251 was > 100 µM (inactive) in each case.
As to `CCOC1c2cc(OC)c(OC)cc2-c2ccc3ccccc3c2N1C` (stereo unspecified), the GI50 with ACHN was 30.3 µM (inactive); with CAKI-1 it was 34.1 µM (inactive); in the test on HCC 2998, 14.1 µM (inactive); with HOP-62 it was 15.7 µM (inactive); with HT-29, 10.9 µM (inactive); in the test with Hs-578T, 6.4 µM (inactive). Also, the GI50 is 12.4 µM (inactive) in the test with MCF7; 4.43 µM (inactive) in the test on MOLT-4; 9.16 µM (inactive) with Malme-3M; 3.02 µM (inactive) in the test on NCI-H522; 11.5 µM (inactive) with OVCAR-3; 19 µM (inactive) in the test on OVCAR-4. Besides, the GI50 is 21.8 µM (inactive) in the test on OVCAR-5; 24.4 µM (inactive) with SF-295; 18.2 µM (inactive) in the test with SF-539; 22 µM (inactive) with SK-OV-3; 7.78 µM (inactive) in the test with SR; 8.65 µM (inactive) in the test on SW-620. For the same compound, in the test on U-251, the GI50 is 6.41 µM (inactive).
Take `O=C(O)c1cc2ccccc2c(/N=N/c2ccc(S(=O)(=O)Nc3ncccn3)cc2)c1O`: the GI50 in the test on ACHN, in the test on CAKI-1, with HCC 2998, in the test with HOP-62, in the test on HT-29 and in the test with Hs-578T was > 100 µM (inactive) throughout. The GI50 with MCF7, with MOLT-4, in the test on Malme-3M, in the test on NCI-H522, in the test with OVCAR-3 and with OVCAR-4 was > 100 µM (inactive) each time. In addition, the GI50 with OVCAR-5, in the test with SF-295, in the test on SF-539, in the test with SK-OV-3, in the test with SR and in the test with SW-620 was > 100 µM (inactive) throughout. The GI50 with U-251 is > 100 µM (inactive).
As for `COc1ccc(-c2sc(Br)c3c2C(=O)C2OC(=O)NC32)cc1OC` (stereo unspecified), the GI50 with A498, with ACHN, with CAKI-1, in the test on HOP-62, in the test with HT-29 and with Hs-578T was > 100 µM (inactive) throughout. Besides, the GI50 in the test with MCF7, in the test with MOLT-4, in the test on Malme-3M, with NCI-H522, with OVCAR-3 and with OVCAR-4 was > 100 µM (inactive) each time. Also, the GI50 with OVCAR-5, in the test on SF-295, in the test on SF-539, in the test with SK-OV-3, in the test with SR and in the test with SW-620 was > 100 µM (inactive) each time. Besides, the GI50 in the test with U-251 was > 100 µM (inactive).
With `O=C1NC(Cc2c[nH]c3ccccc23)C(=O)N2C(c3ccccc3)c3[nH]c4ccccc4c3C[C@@H]12` (stereo partly specified), the GI50 in the test with A498 is 29.8 µM (inactive); with ACHN, 29.4 µM (inactive); in the test on CAKI-1, 25.5 µM (inactive); with HOP-62, 17.2 µM (inactive); in the test with HT-29, 22.1 µM (inactive); with Hs-578T, 16.5 µM (inactive). The GI50 was 15.7 µM (inactive) with MCF7; 12.6 µM (inactive) with MOLT-4; 15 µM (inactive) in the test on Malme-3M; 18.1 µM (inactive) in the test on NCI-H522; 15.5 µM (inactive) in the test on OVCAR-3; 26.9 µM (inactive) with OVCAR-4. Further, the GI50 in the test on OVCAR-5 is 22 µM (inactive); with SF-295, 15.3 µM (inactive); with SK-OV-3 it was 31.3 µM (inactive); with SR, 12.8 µM (inactive); in the test with SW-620 it was 31.9 µM (inactive); in the test on U-251 it was 19.5 µM (inactive).
On to `CC(C)(C)OC(=O)NCCCCC(NC(=O)C(Cc1c[nH]c2ccccc12)NC(=O)OCC1c2ccccc2-c2ccccc21)C(=O)N1CCCC1C(=O)NCC(N)=O` (stereo unspecified) (Fmoc-WK(Boc)PG-NH2; configuration not given here), for which the GI50 in the test with ACHN, with CAKI-1, in the test on HCC 2998, in the test on HOP-62, with HT-29 and in the test with Hs-578T was > 100 µM (inactive) in each case. In addition, the GI50 in the test on MCF7, in the test with MOLT-4, with Malme-3M, with NCI-H522, with OVCAR-3 and in the test on OVCAR-4 was > 100 µM (inactive) throughout. Moreover, the GI50 is > 100 µM (inactive) in the test on OVCAR-5; 60.3 µM (inactive) with SF-295; > 100 µM (inactive) in the test with SF-539; 1.59 µM (inactive) in the test with SK-OV-3; > 100 µM (inactive) with SR; > 100 µM (inactive) with SW-620. For the same compound, the GI50 in the test with U-251 is > 100 µM (inactive).

Source of the values: ChEMBL document CHEMBL1201862, “PubChem BioAssay data set” (2004).
